The test system of test [1] is P388 Lymphocytic Leukemia. The test can be described thus: Dolastatin 10 in murine in vivo system, P388 Lymphocytic Leukemia. The source says: (§1) Presently Dolastatin 10, a linear pentapeptide represents the most important member and is a potentially useful antineoplastic agent.
Test [2] relates to LOX Human Melanoma Xenograph. The test can be described thus: Dolastatin 10 in murine in vivo system, LOX Human Melanoma Xenograph (Nude Mouse).
Text: as §1

For another test, the system named is Human Mammary Xenograph. The test can be described thus: Dolastatin 10 in murine in vivo system, Human Mammary Xenograph Nude Mouse.
Text: as §1

Test [3] concerns OVCAR-3 Human Ovary Xenograph. The experiment in a line: Dolastatin 10 in murine in vivo system, OVCAR-3 Human Ovary Xenograph Nude Mouse. To be noted: 40 μg/kg. An excerpt:
The synthesis of potentially useful peptides presents one of the most essential and promising approaches to new types of anticancer and immunosuppressant drugs. The Dolastatins, an unprecedented series of linear and cyclic antineoplastic and/or cytostatic peptides isolated from Indian Ocean sea hare Dolabella auricularia represent excellent leads for synthetic modification. The very productive sea hare Dolabella auricularia has produced a number of structurally distinct peptides with excellent antineoplastic activity. Presently Dolastatin 10, a linear pentapeptide represents the most important member and is a potentially useful antineoplastic agent. […] Recently the total synthesis and absolute configuration of this structurally unique and biologically active peptide was reported.

Test [4] deals with murine lymphocytic P388 leukemia cell line. The experiment in a line: Inhibition of murine lymphocytic P388 leukemia cell line. The class given is cell-based. To be noted: MOUSE LEUKEMIA P388. The source says:
(§2) The dipeptides (1a-1e) were in turn prepared by coupling dolaproine (5) with the respective amino acids. All compounds were characterized (physical and spectroscopic data) and tested against the murine lymphocytic P388 leukemia cell line as well as six major human cancer cell lines.

The subject of another test is OVCAR-3. The test can be described thus: Inhibition of human cancer cell line OVCAR-3 (Ovarian). The class given is cell-based.
Text: (§3) Current research in the control of cancer in the United States is coordinated by the National Cancer Institute (NCI). To determine whether a substance has anti-cancer properties, the NCI has established a systematic protocol. […] The protocol, and the established statistical means for analyzing the results obtained by the standardized testing are fully described in the literature. See: Boyd, Dr. Michael R., Principles & Practice of Oncology, PPO Updates, Volume 3, Number 10, October 1989, for an in depth description of the testing protocol; and Paull, K. D., "Display and Analysis of Patterns of Differential Activity of Drugs Against Human Tumor Cell Lines; Development of Mean Graph and COMPARE Algorithm", Journal of the National Cancer Institute Reports, Vol. 81, No. 14, Page 1088, Jul. 14, 1989 for a description of the methods of statistical analysis. Both of these references are incorporated herein by this reference thereto.
as §2

The next test concerns SF-295. The experiment in a line: Inhibition of human cancer cell line SF-295 (CNS). The format is cell-based.
Text: as §3, §2

The subject of another test is A498. The experiment in a line: Inhibition of human cancer cell line A498 (Renal). The format is cell-based.
Text: as §3, §2

In the next test the test system is NCI-H460. The test can be described thus: Inhibition of human cancer cell line NCI-H460 (Lung-NSC). The format is cell-based.
Text: as §3, §2

The next test has as its system KM20L2. The test can be described thus: Inhibition of human cancer cell line KM20L2 (Colon). The format is cell-based.
Text: as §3, §2

For a further test, the system named is SK-MEL-3. The test can be described thus: Inhibition of human cancer cell line SK-MEL-3 (Melanoma). The format is cell-based.
Text: as §3, §2

Bounds are passed on as bounds.

Experimental findings from patent publication US5780588A, “Elucidation and synthesis of selected pentapeptides” (priority 1993, dated 1998) are described below.

Consider Dolastatin 10, for which the T/C in [1] (3.25 μg/kg) was determined as 146; in test [1] (6.5 μg/kg) it was 155; in test [2] (3.25 μg/kg) it was 170; in [2] (6.5 μg/kg) it was 206; in test [2] (13 μg/kg) it was 301; in [2] (26 μg/kg) it was 301. For the same substance, the T/C turned out to be 178 in the test with Human Mammary Xenograph (6.25 μg/kg), 137 in the test on Human Mammary Xenograph (13 μg/kg) and 300 in [3].

In test [4], “Dov-Val-Dil-Dap-Ile-OCH3 [pentapeptide 3d]” registered an ED50 of 0.441 ng/mL. The GI-50 in the test on OVCAR-3, in the test on SF-295, with A498, in the test with NCI-H460, with KM20L2 and in the test on SK-MEL-3 was less than 0.0001 µg/mL throughout. Further, the LC-50 was 0.043 µg/mL with OVCAR-3; more than 1 µg/mL with SF-295; more than 1 µg/mL in the test with A498; more than 1 µg/mL with NCI-H460; more than 1 µg/mL in the test on KM20L2; more than 1 µg/mL in the test on SK-MEL-3. Moreover, the TGI (in general, the concentration giving total growth inhibition) was less than 0.1 ng/mL in the test with OVCAR-3; 170 ng/mL in the test on SF-295; less than 0.1 ng/mL with A498; 0.88 ng/mL in the test with NCI-H460; less than 0.1 ng/mL in the test with KM20L2; less than 0.1 ng/mL in the test with SK-MEL-3.

Consider “Dov-Val-Dil-Dap-Met-OCH3 [pentapeptide 3e]”, for which the ED50 in test [4] stood at 0.389 ng/mL. Also, the GI-50 in the test with OVCAR-3, in the test on SF-295, in the test on A498, with NCI-H460, with KM20L2 and in the test on SK-MEL-3 was less than 0.0001 µg/mL each time. Also, the LC-50 in the test on OVCAR-3, in the test with SF-295, in the test with A498, in the test on NCI-H460, in the test with KM20L2 and in the test with SK-MEL-3 was more than 1 µg/mL each time. For the same substance, the TGI was less than 0.1 ng/mL in the test on OVCAR-3; 56 ng/mL in the test on SF-295; more than 1000 ng/mL in the test on A498; 130 ng/mL in the test with NCI-H460; 0.15 ng/mL with KM20L2; more than 1000 ng/mL with SK-MEL-3.

In test [4], “Dov-Val-Dil-Dap-Phe-NH2 [pentapeptide 3b]” had an ED50 of 19.5 ng/mL. The GI-50 was 0.0076 µg/mL in the test on OVCAR-3; 0.00085 µg/mL with SF-295; 0.00097 µg/mL in the test with A498; 0.000095 µg/mL with NCI-H460; less than 0.0001 µg/mL with KM20L2; 0.00017 µg/mL in the test on SK-MEL-3. Further, the LC-50 is 0.066 µg/mL in the test on OVCAR-3; more than 1 µg/mL with SF-295; more than 1 µg/mL in the test with A498; more than 1 µg/mL with NCI-H460; 0.083 µg/mL in the test with KM20L2; more than 1 µg/mL in the test on SK-MEL-3. The total growth inhibition concentration (TGI) turned out to be 3.7 ng/mL in the test on OVCAR-3; 49 ng/mL in the test on SF-295; 6.2 ng/mL with A498; 11 ng/mL in the test on NCI-H460; 19 ng/mL in the test with KM20L2; 12 ng/mL in the test with SK-MEL-3.

Turning to “Dov-Val-Dil-Dap-Phe-OCH3 [pentapeptide 3a]”, in test [4], the ED50 is 66.7 ng/mL. The GI-50 in the test on OVCAR-3, with SF-295, in the test with A498, in the test with NCI-H460, in the test with KM20L2 and in the test on SK-MEL-3 was less than 0.0001 µg/mL throughout. For the same substance, the LC-50 in the test on OVCAR-3, with SF-295, in the test with A498, in the test on NCI-H460, with KM20L2 and with SK-MEL-3 was more than 1 µg/mL throughout. For the same substance, the TGI in the test on OVCAR-3 worked out at 1.1 ng/mL; in the test with SF-295, 0.17 ng/mL; with A498 it was 2.9 ng/mL; in the test on NCI-H460 it was 11 ng/mL; in the test with KM20L2 it was 1.1 ng/mL; in the test on SK-MEL-3, 0.68 ng/mL.

“Dov-Val-Dil-Dap-Pro-OCH3 [pentapeptide 3c]” returned an ED50 in test [4] of 8.8 ng/mL. In addition, the GI-50 with OVCAR-3, in the test on SF-295, in the test with A498, with NCI-H460, in the test with KM20L2 and with SK-MEL-3 was less than 0.0001 µg/mL each time. In addition, the LC-50 in the test on OVCAR-3, with SF-295, in the test with A498, in the test with NCI-H460, in the test with KM20L2 and with SK-MEL-3 was more than 1 µg/mL in each case. Also, the TGI with OVCAR-3 is less than 0.1 ng/mL; in the test on SF-295, 2.4 ng/mL; with A498, 5.4 ng/mL; in the test on NCI-H460, 1.3 ng/mL; in the test with KM20L2, 2.2 ng/mL; in the test on SK-MEL-3, less than 0.1 ng/mL.
